System: Crude diglycosidase
Experiment: Examination of substrate concentration in the conversion into isoflavone aglycons by diglycosidase using soybean materials
Assay type: biochemical, Penicillium multicolor IAM7153
Summary of the method: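 Soybean materials (roasted soy flour, soymilk, defatted soybean, concentrated soy protein) at 2–30% (w/v) in 20 mM acetate pH 4.0 were reacted with crude diglycosidase at 55° C with shaking; enzyme solution added was 1.88 AU/mL. Samples taken at 0, 1, 3 and 6 h were ethanol-extracted and analyzed by HPLC.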

O=c1c(-c2ccc(O)cc2)coc2cc(O)cc(O)c12 [genistein]
Decomposition efficiency of genistin family in defatted soybean (substrate concentration 2%, heat treatment of enzyme no, reaction time 0 h): 15.1
Decomposition efficiency of genistin family in defatted soybean (substrate concentration 2%, heat treatment of enzyme no, reaction time 1 h): 68.6
Decomposition efficiency of genistin family in defatted soybean (substrate concentration 2%, heat treatment of enzyme no, reaction time 3 h): 83.0
Decomposition efficiency of genistin family in defatted soybean (substrate concentration 2%, heat treatment of enzyme no, reaction time 6 h): 88.6
Decomposition efficiency of genistin family in defatted soybean (substrate concentration 2%, heat treatment of enzyme yes, reaction time 6 h): 18.0
Decomposition efficiency of genistin family in defatted soybean (substrate concentration 5%, heat treatment of enzyme no, reaction time 0 h): 14.2
Decomposition efficiency of genistin family in defatted soybean (substrate concentration 5%, heat treatment of enzyme no, reaction time 1 h): 61.2
Decomposition efficiency of genistin family in defatted soybean (substrate concentration 5%, heat treatment of enzyme no, reaction time 3 h): 69.9
Decomposition efficiency of genistin family in defatted soybean (substrate concentration 5%, heat treatment of enzyme no, reaction time 6 h): 80.7
Decomposition efficiency of genistin family in defatted soybean (substrate concentration 5%, heat treatment of enzyme yes, reaction time 6 h): 15.4
Decomposition efficiency of genistin family in defatted soybean (substrate concentration 10%, heat treatment of enzyme no, reaction time 0 h): 14.1
Decomposition efficiency of genistin family in defatted soybean (substrate concentration 10%, heat treatment of enzyme no, reaction time 1 h): 57.2
Decomposition efficiency of genistin family in defatted soybean (substrate concentration 10%, heat treatment of enzyme no, reaction time 3 h): 64.0
Decomposition efficiency of genistin family in defatted soybean (substrate concentration 10%, heat treatment of enzyme no, reaction time 6 h): 70.3
Decomposition efficiency of genistin family in defatted soybean (substrate concentration 10%, heat treatment of enzyme yes, reaction time 6 h): 14.5
